Tested on: patients with moderate to severe postoperative pain following bunionectomy surgery
Test: Three double blind, randomized clinical studies (007, 008, 021): oxygen desaturation (SpO2<90%) by pulse oximetry during 48 hour treatment
Conditions: for median number of episodes of SpO2<90%: patients who experienced oxygen desaturation
Protocol: Oxygen saturation was measured continuously during baseline and the 48 hour treatment periods using pulse oximetry. The total number and percentage of patients with oxygen desaturation (SpO2<90%) were recorded at: 0, 15, 30 and 45 minutes, and 1, 2, 3, 4, 5, 6 and 8 hours after study drug administration; at the time of administration of subsequent doses of study medication; at the time of administration of supplemental analgesic medication; 1 hour after administration of study medication; and whenever a desaturation occurred during the dosing period.
Respiration rate (<10 breaths/min, 10-12 breaths/min, >12 breaths/min) was summarized at the same time points as the SpO2 recordings. Cumulative MED was determined at the time of the first episode of SpO2<90%. All desaturations and use of supplemental oxygenation, use of narcotic antagonists against respiratory impairment, and respiratory related serious adverse events (SAEs) were recorded.
In subjects with oxygen desaturation the following data was recorded: cumulative MED at first desaturation; mean desaturation values; number of desaturation episodes; and total duration of desaturation episodes.
Some patients in the three clinical studies were enrolled who resided near study sites that are located at an altitude of about or over 4000 feet above sea level.

Compound: CN1CC[C@]23c4c5ccc(O)c4O[C@H]2[C@@H](O)C=C[C@H]3[C@H]1C5.O=S(=O)(O)O [morphine, morphine sulfate]
- median number of episodes of SpO2<90%: 2.0

Compound: COc1ccc2c3c1O[C@H]1C(=O)CC[C@@]4(O)[C@@H](C2)N(C)CC[C@]314.Cl [oxycodone, oxycodone hydrochloride]
- incidence of desaturation (SpO2<90%) (12 mg MED, lower elevation / non-high altitude sites): 1.6%
- cumulative dose before experiencing an oxygen desaturation event (SpO2<90%) (cumulative MED at first desaturation): 24 mg
- incidence of desaturation at high elevation site compared to lower sites (morphine or oxycodone alone): ten-fold greater
- median number of episodes of SpO2<90%: 2.0

Source: patent US20120283283A1, “METHODS FOR DETECTING ENHANCED RISK OF OPIOID-INDUCED HYPOXIA IN A PATIENT” (priority 2011, published 2012)
